In patent publication US12612388B2, “Receptor-interacting protein 1 inhibitors including piperazine heterocyclic amide ureas” (SIRONAX LTD., priority 2020, dated 2026) one finds EC50 data, which are given here for 10 compounds.

The subject of the assay is HT-29 cells. Kind of assay: Cellular RIP1 inhibitory activity: necroptosis of HT-29 cells induced by TNF-α/SMAC mimetic/zVAD-FMK, CellTiter-Glo viability. Conditions: Homo sapiens; HT-29 cells; TNF-α 10 ng/ml, SMAC mimetic 6 μM, zVAD-FMK 10 μM; 20 hours; geometric mean, 10 points, duplicates; read-out: EC50 (Cell activity; Necrosis or Necroptosis Inhibitory Activity). It is filed as cell-based. The method, then:
In Table 2, activity is provided as follows: +++=0.1 nM≤EC50<100 nM; ++=100 nM≤EC50K<1000 nM; +=1000 nM≤EC50K<10000 nM.
Compounds 1-67 (denoted as Compound Nos. 1 through 67 in Table 1) of the disclosure were tested for binding and cellular RIP1 inhibitory activity following the experimental procedures described below.
Cell line: HT-29 (ATCC® HTB-38™)
Culture medium: McCOY's 5A, Gibco, Cat No. 16600-082
DMSO: Sigma, Cat No. 67-68-5, 1 L
Assay plate: Corning #3903
Compound dilution plate: Corning #3357
Inducers: TNFα, GenScript, Cat No. Z01001-50,
SmacM, Cat. No., HY-15989, MedChemExpress (MCE)
Z_VAD FMK, TargetMol, T6013
Cell Titer-Glo® Luminescent Cell Viability Assay Kit: Promega, Cat No. G7573
1. HT-29 cells were checked every day to make sure that they were healthy and growing as expected. They were subjected to sub-culturing when they were approximately 80% confluent.
2. The culture medium, McCOY's 5A medium (Gibco, Cat No. 16600-082) with 10% fetal bovine serum or FBS (Gibco, Cat No. 10099-141C), was pre-warmed in a 37° C. water bath for at least 30 min.
3. When the cells had reached a desired level of confluency of 80% in a T75 flask, the medium was aspirated, and the cells were washed with warm phosphate buffered saline or PBS two times.
4. 2-3 ml fresh warm trypsin (Gibco, Cat No. 25200-056) solution was added to the washed cells. The flask with the cells was transferred to a 37° C. incubator.
5. After 5 minutes, the side of the flask was tapped, and the flask was examined under a microscope for detachment of the cells to the flask. If necessary, the cells were kept in the incubator for an additional 5-10 minutes, with occasional tapping, until lifting was complete.
6. The trypsin reaction was neutralized by transferring 6-9 ml cell culture medium to sterile 15 ml conical tubes, and by centrifuging the cell culture at 300×g for 7 minutes to pellet the cells (supernatant decanted).
7. The cells were resuspended in fresh cell culture medium and the cell counting was performed using a hemocytometer.
8. 100 μl of the resuspended cell culture medium containing ˜5,000 cells were transferred into each well of the sterile 96-well cell culture plate (Corning 3903) and cultured overnight at 37° C. with 5% CO2.
Compound Titration and Treatment
1. All test compounds were dissolved in DMSO (Dimethyl sulfoxide) to create a 20 mM stock.
2. 3 μl of each compound 20 mM stock was mixed with 27 μl DMSO, and the compound solution was further diluted at a titration ratio of 1:3 (20 μl compound solution+40 μl DMSO) till the 10 points end.
3. All culture medium was removed from assay plates filled with HT-29 cell cultures. The cells were then washed with 1 PBS, and resuspended in fresh, FBS-free McCOY's 5A medium containing a cocktail of TNF-α (10 ng/ml), a SMAC mimetic compound (6 μM) and Z-VAD-fluoromethylketone or zVAD-FMK (10 μM) to stimulate the HT-29 cells to increase RIP1 kinase levels and necroptosis.
4. 0.5 μL of the diluted compound solution was added to the corresponding 96-well assay plates.
5. The assay plates were incubated for 20 hours at 37° C. with 5% CO2.
1. The CellTiter-Glo® Luminescent Cell Viability Assay was employed to detect the ATP levels of viable HT-29 cells.
2. The CellTiter-Glo® buffer and the lyophilized substrate were equilibrated to room temperature prior to use.
3. The CellTiter-Glo® substrate was resuspended with CellTiter-Glo® buffer, then mixed by gently vortexing to obtain a homogeneous solution.
4. 20 μl the enzyme/substrate mixture was transferred by multi-channel pipetting into 96-well assay plates.
5. The assay plates were placed on an orbital shaker and the contents were shaken for 3 minutes to induce cell lysis.
6. The assay plates were incubated at room temperature for 10 minutes to stabilize the luminescent signal.
7. The luminescence signals were read and recorded with EnVision.
8. The geometric mean EC50 values were calculated from 10 points response dose with duplicates. […]
As to `O=C(c1nc(N2CCN(C(=O)N3N=CC[C@H]3c3cc(F)cc(F)c3)CC2)ncc1F)N1CC(O)C1` [Compound 13, (5-(3,5-difluorophenyl)-4,5-dihydro-1H-pyrazol-1-yl)(4-(5-fluoro-4-(3-hydroxyazetidine-1-carbonyl)pyrimidin-2-yl)piperazin-1-yl)methanone], the EC50 lay in the range of 0.1 to 100 nM. As to `O=C(c1nc(N2CCN(C(=O)N3N=CC[C@H]3c3cc(F)cc(F)c3)CC2)ncc1F)N1CC(F)(F)C1` [Compound 12, (S)-(3,3-difluoroazetidin-1-yl)(2-(4-(5-(3,5-difluorophenyl)-4,5-dihydro-1H-pyrazole-1-carbonyl)piperazin-1-yl)-5-fluoropyrimidin-4-yl)methanone], the EC50 was 0.1 to 100 nM. The result for `CN(C)[C@@H]1CCN(C(=O)c2nc(N3CCN(C(=O)N4N=CC[C@H]4c4cc(F)cc(F)c4)CC3)ncc2F)C1` [Compound 32, ((S)-5-(3,5-difluorophenyl)-4,5-dihydro-1H-pyrazol-1-yl)(4-(4-((R)-3-(dimethylamino)pyrrolidine-1-carbonyl)-5-fluoropyrimidin-2-yl)piperazin-1-yl)methanone] reads 0.1 to 100 nM. Consider `CN(C)C1CN(C(=O)c2nc(N3CCN(C(=O)N4N=CC[C@H]4c4cc(F)cc(F)c4)CC3)ncc2F)C1` [Compound 33, (S)-(5-(3,5-difluorophenyl)-4,5-dihydro-1H-pyrazol-1-yl)(4-(4-(3-(dimethylamino)azetidine-1-carbonyl)-5-fluoropyrimidin-2-yl)piperazin-1-yl)methanone], for which the EC50 was 0.1 to 100 nM. The same measure for `CN(CC#N)C(=O)c1nc(N2CCN(C(=O)N3N=CC[C@H]3c3cc(F)cc(F)c3)CC2)ncc1F` [Compound 34, (S)—N-(cyanomethyl)-2-(4-(5-(3,5-difluorophenyl)-4,5-dihydro-1H-pyrazole-1-carbonyl)piperazin-1-yl)-5-fluoro-N-methylpyrimidine-4-carboxamide]: 0.1 to 100 nM; for `CC(C)OC1CN(C(=O)c2ccnc(N3CCN(C(=O)N4N=CC[C@H]4c4cc(F)cc(F)c4)CC3)n2)C1` [Compound 37, (S)-(5-(3,5-difluorophenyl)-4,5-dihydro-1H-pyrazol-1-yl)(4-(4-(3-isopropoxyazetidine-1-carbonyl)pyrimidin-2-yl)piperazin-1-yl)methanone]: 0.1 to 100 nM; for `NC(=O)[C@H]1CCN(C(=O)c2nc(N3CCN(C(=O)N4N=CC[C@H]4c4cc(F)cc(F)c4)CC3)ncc2F)C1` [Compound 26, (S)-1-(2-(4-((S)-5-(3,5-difluorophenyl)-4,5-dihydro-1H-pyrazole-1-carbonyl)piperazin-1-yl)-5-fluoropyrimidine-4-carbonyl)pyrrolidine-3-carboxamide]: 0.1 to 100 nM.

On to `N#Cc1cc(F)cc([C@@H]2CC=NN2C(=O)N2CCN(c3ncc(F)c(C(=O)N4CC(OCC5CC5)C4)n3)CC2)c1` [Compound 59, (S)-3-(1-(4-(4-(3-(cyclopropylmethoxy)azetidine-1-carbonyl)-5-fluoropyrimidin-2-yl)piperazine-1-carbonyl)-4,5-dihydro-1H-pyrazol-5-yl)-5-fluorobenzo nitrile], for which the concentration for a half-maximal effect (EC50) lay within 0.1 to 100 nM. For the compound `NC(=O)c1ccnc(N2CCN(C(=O)N3N=CC[C@H]3c3cc(F)cc(F)c3)CC2)n1` [Compound 38, 2-(4-(5-(3,5-difluorophenyl)-4,5-dihydro-1H-pyrazole-1-carbonyl)piperazin-1-yl)pyrimidine-4-carboxamide], the EC50 lay in the range of 0.1 to 100 nM. The result for `CCOC1CN(C(=O)c2nc(N3CCN(C(=O)N4N=CC[C@H]4c4cc(F)cc(F)c4)CC3)ncc2F)C1` [Compound 23, (S)-(5-(3,5-difluorophenyl)-4,5-dihydro-1H-pyrazol-1-yl)(4-(4-(3-ethoxyazetidine-1-carbonyl)-5-fluoropyrimidin-2-yl)piperazin-1-yl)methanone] reads 0.1 to 100 nM.
